Consider 14 molecules from patent publication EP4748837A1, “AROMATIC AMIDE DERIVATIVE, AND PREPARATION METHOD THEREFOR AND USE THEREOF” (Zhejiang Hisun Pharmaceutical Co., Ltd., priority 2023, dated 2025).

One test relates to OVCAR-3 cells. Nature of the test: Inhibition of OVCAR-3 cell proliferation (CellTiter-Glo cell viability). The test is classed as cell-based. Conditions: Homo sapiens. The protocol:
Influences of the compounds of the present invention on OVCAR-3 cell proliferation were determined by the following method. OVCAR-3 cells (containing TP53 R248Q mutation) were purchased from the Cell Bank of Shanghai Institute of Biochemistry and Cell Biology, Chinese Academy of Sciences, and cultured in an RPMI 1640 culture medium containing 10% fetal bovine serum, 100 U penicillin and 100 µg/mL streptomycin. A cell viability was determined by a CellTiter-Glo® Luminescent Cell Viability Assay kit (Promega, article number G7573).
(§1) An experimental method was operated according to steps in the instruction of the kit, which was briefly described as follows: a test compound was dissolved in DMSO first to prepare a 10 mM stock solution, then the stock solution was diluted with the culture medium to prepare a test sample, and a final concentration of the compound was in a range of 1000 nM-0.015 nM. Cells in a logarithmic growth phase were inoculated into a 96-well cell culture plate at a density of 1000 cells per well, cultured in a 5% CO2 incubator at 37°C overnight, and then the test compound was added to continuously culture for 72 hours. After the culture was ended, 50 uL of CellTiter-Glo detection solution was added to each well , shaken for 5 minutes, and then allowed to stand for 10 minutes, and subsequently, a luminance value of each well of the sample was read by a microplate reader in a Luminescence mode. By comparing with the numerical value of a control group (0.3% DMSO), a percentage inhibition rate of the compound at each concentration point was calculated, and then nonlinear regression analysis was carried out based on concentration logarithm-inhibition rate of the compound in GraphPad Prism 5 software, so as to obtain an IC50 value of the compound for inhibiting the cell proliferation, which was as shown in Table 1. Table 1 IC50 data of the compounds of the present invention for inhibiting OVCAR-3 cell proliferation

The next test relates to HT-29 cells. Nature of the test: Inhibition of HT-29 cell proliferation (CellTiter-Glo cell viability). The test is classed as cell-based. Conditions: Homo sapiens. The protocol:
Influences of the compounds of the present invention on HT-29 cell proliferation were determined by the following method. HT-29 cells (containing TP53 R273H mutation) were purchased from the Cell Bank of Shanghai Institute of Biochemistry and Cell Biology, Chinese Academy of Sciences, and cultured in a McCOY's 5A culture medium containing 10% fetal bovine serum, 100 U penicillin and 100 µg/mL streptomycin. A cell viability was determined by a CellTiter-Glo® Luminescent Cell Viability Assay kit (Promega, article number G7573).
as §1, with “for 120” for “for 72”, “each well,” for “each well ,”, “Table 2.” for “Table 1.”, “Table 2” for “Table 1”, “inhibiting HT-29” for “inhibiting OVCAR-3”
Background: In ATP-based viability assays light output follows the ATP content of the culture.

A further test concerns the target T1, recombinant human KIF18A (Homo sapiens, UniProt Q8NI77).
T1 construct: purchased GenScript
Nature of the test: Inhibition of KIF18A enzyme activity (ADP-Glo assay). The conditions noted are these: recombinant human KIF18A 100 nM, ATP 60 µM, tubulin, paclitaxel. The test is classed as biochemical. The protocol:
Inhibition degrees of the compounds of the present invention on recombinant human KIF18A enzyme activity in vitro were determined by the following method. An ADP-Glo™ Kinase Assay kit (article number V9102) from Promega Company was used in this method. Detailed experimental operation referred to the instruction of the kit.
An experimental process was briefly described as follows: a test compound was dissolved in DMSO first to prepare a stock solution, then the stock solution was gradiently diluted with a reaction buffer A ([…], 0.01% Pluronic F-68), and a final concentration of the test compound in the reaction system was in a range of 10000 nM-0.15 nM; and a KIF18A protein and ATP working solution was prepared by using a reaction buffer B (15 mM Tris, pH 7.5, 10 mM MgCl2, 0.01% Pluronic F-68, 37.5 µg/ml tubulin, 1.25 µM paclitaxel). The reaction was carried out in a 384-well microplate. The test compound and the recombinant human KIF18A protein (final concentration of 100 nM, entrusted to GenScript for expression) were added into the wells and incubated at room temperature for 20 minutes, and subsequently, an ATP solution (component V915A from the ADP-Glo™ Kinase Assay kit, final concentration of 60 µM) was added to the reaction solution and the system was incubated at room temperature for 20 minutes. Subsequently, 5 µL of ADP-Glo Reagent was added to the reaction systemand the system was incubated at room temperature for 50 minutes. Then, 10 µL of Kinase Detection Reagent was added to the reaction system and the system was incubated at room temperature for 30 minutes. After the incubation was ended, a chemiluminiscence intensity value of each well was determined by a microplate reader in a Luminescence mode.

Setting [1] is: OVCAR-3 cells (TP53 R248Q mutation), 72 hours culture with compound, read-out: IC50.
Where [2] appears, read: HT-29 cells (TP53 R273H mutation), 120 hours culture with compound, read-out: IC50.

Read-outs that look alike come from different tables or passages of the source.

T1 sequence (Q8NI77 whole entry): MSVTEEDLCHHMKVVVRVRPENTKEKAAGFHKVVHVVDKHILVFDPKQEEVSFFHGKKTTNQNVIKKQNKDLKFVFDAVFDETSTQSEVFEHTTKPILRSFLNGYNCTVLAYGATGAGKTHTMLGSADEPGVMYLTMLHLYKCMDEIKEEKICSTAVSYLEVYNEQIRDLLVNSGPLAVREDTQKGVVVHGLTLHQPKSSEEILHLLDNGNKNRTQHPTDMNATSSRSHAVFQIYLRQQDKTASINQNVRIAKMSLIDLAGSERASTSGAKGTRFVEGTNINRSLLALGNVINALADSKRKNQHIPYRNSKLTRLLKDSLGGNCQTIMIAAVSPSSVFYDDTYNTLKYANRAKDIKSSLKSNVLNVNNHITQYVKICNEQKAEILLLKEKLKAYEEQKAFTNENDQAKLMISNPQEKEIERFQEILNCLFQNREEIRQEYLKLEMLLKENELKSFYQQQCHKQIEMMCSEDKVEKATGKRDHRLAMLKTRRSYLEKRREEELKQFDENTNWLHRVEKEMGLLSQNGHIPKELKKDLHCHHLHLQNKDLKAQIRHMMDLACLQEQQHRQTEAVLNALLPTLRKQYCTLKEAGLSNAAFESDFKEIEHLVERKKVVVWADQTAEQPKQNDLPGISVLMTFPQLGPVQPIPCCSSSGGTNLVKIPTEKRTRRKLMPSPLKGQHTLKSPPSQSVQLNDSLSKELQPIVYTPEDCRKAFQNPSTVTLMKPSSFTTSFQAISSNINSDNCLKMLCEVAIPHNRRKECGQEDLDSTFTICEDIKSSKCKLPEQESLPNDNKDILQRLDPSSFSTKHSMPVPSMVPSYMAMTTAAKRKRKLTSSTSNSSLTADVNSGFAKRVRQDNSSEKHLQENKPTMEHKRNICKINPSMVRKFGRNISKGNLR
T1 sequence (P68363 whole entry partner): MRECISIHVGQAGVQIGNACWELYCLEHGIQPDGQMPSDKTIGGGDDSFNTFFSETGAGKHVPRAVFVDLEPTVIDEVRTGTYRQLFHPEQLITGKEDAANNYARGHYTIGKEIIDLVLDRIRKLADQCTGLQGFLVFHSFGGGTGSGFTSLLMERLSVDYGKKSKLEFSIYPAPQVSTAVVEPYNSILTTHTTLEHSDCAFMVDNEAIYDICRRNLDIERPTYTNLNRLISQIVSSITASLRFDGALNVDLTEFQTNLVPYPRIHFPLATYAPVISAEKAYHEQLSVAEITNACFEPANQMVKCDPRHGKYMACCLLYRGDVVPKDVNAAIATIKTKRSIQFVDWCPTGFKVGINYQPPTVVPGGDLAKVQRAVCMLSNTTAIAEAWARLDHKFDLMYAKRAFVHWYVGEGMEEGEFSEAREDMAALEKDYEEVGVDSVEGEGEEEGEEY
T1 sequence (Q9BVA1 whole entry partner): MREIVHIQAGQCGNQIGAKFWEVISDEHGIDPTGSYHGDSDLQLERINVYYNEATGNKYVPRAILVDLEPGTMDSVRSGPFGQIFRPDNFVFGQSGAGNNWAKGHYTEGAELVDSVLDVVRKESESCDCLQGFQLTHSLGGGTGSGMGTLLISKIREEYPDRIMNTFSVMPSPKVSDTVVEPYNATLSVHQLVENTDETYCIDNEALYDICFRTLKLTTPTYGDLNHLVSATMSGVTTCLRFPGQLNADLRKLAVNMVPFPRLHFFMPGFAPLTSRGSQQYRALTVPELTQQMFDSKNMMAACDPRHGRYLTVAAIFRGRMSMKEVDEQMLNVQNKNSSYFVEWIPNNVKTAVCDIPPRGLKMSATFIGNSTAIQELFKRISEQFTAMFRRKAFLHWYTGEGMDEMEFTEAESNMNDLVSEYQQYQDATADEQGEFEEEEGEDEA

The term IC50 denotes the concentration that inhibits the measured activity by half. In the case of `CCS(=O)(=O)Nc1ccc(C(=O)Nc2ccc(-c3ncccn3)c(N3CCC(F)(F)CC3)c2)c(N2CCC3(CC2)CC3)c1` [Example 14, N-(3-(4,4-difluoropiperidin-1-yl)-4-(pyrimidin-2-yl)phenyl)-4-(ethylsulfonamido)-2-(6-azaspiro[2.5]octan-6-yl)benzamide], the figures for the IC50 in the test on OVCAR-3 cells (setting [1]), in the test with HT-29 cells (setting [2]) and on recombinant human KIF18A (read-out: IC50) were 5.9 nM, 10.1 nM and 120 nM, respectively.

As to `O=C(Nc1ccc(-c2cccnn2)c(N2CCC(F)(F)CC2)c1)c1ccc(NS(=O)(=O)C2CC2)cc1N1CCC2(CC1)CC2` [Example 15, 4-(cyclopropanesulfonamido)-N-(3-(4,4-difluoropiperidin-1-yl)-4-(pyridazin-3-yl)phenyl)-2-(6-azaspiro[2.5]octan-6-yl)b enzamide], the IC50 in the test with OVCAR-3 cells (setting [1]) was determined as 3.7 nM; in the test with HT-29 cells (setting [2]), 4.7 nM; at recombinant human KIF18A (read-out: IC50), 69.4 nM.

As to `O=C(Nc1ccc(-c2ccnnc2)c(N2CCC(F)(F)CC2)c1)c1ccc(NS(=O)(=O)C2CC2)cc1N1CCC2(CC1)CC2` [Example 16, 4-(cyclopropanesulfonamido)-N-(3-(4,4-difluoropiperidin-1-yl)-4-(pyridazin-4-yl)phenyl)-2-(6-azaspiro[2.5]octan-6-yl)b enzamide], the IC50 came out at 6.2 nM with OVCAR-3 cells (setting [1]), 4.6 nM in the test on HT-29 cells (setting [2]) and 147 nM at recombinant human KIF18A (read-out: IC50).

For the molecule `O=C(Nc1ccc(-c2ncccn2)c(N2CCC(F)(F)CC2)c1)c1ccc(NS(=O)(=O)C2CC2)cc1N1CCC2(CC1)CC2` [Example 17, 4-(cyclopropanesulfonamido)-N-(3-(4,4-difluoropiperidin-1-yl)-4-(pyrimidin-2-yl)phenyl)-2-(6-azaspiro[2.5]octan-6-yl)b enzamide], the IC50 in the test with OVCAR-3 cells (setting [1]) came to 3.2 nM; in the test with HT-29 cells (setting [2]), 3.3 nM; on recombinant human KIF18A (read-out: IC50), 121 nM.

Take `CCS(=O)(=O)Nc1ccc(C(=O)Nc2ccc(-c3ncccn3)c(N3CC(F)(F)C3)c2)c(N2CCC3(CC2)CC3)c1` [Example 18, N-(3-(3,3-difluoroazetidin-1-y 1)-4-(pyrimidin-2-yl)phenyl)-4-(ethylsulfonamido)-2-(6-azaspiro[2.5]octan-6-yl)benzamide]: the values for the IC50 with OVCAR-3 cells (setting [1]), with HT-29 cells (setting [2]) and on recombinant human KIF18A (read-out: IC50) were 6.5 nM, 0.64 nM and 149 nM, respectively.

Regarding `CCS(=O)(=O)Nc1ccc(C(=O)Nc2ccc(-c3ccnnc3)c(N3CC(F)(F)C3)c2)c(N2CCC3(CC2)CC3)c1` [Example 19, N-(3-(3,3-difluoroazetidin-1-y 1)-4-(pyridazin-4-yl)phenyl)-4-(ethylsulfonamido)-2-(6-azaspiro[2.5]octan-6-yl)benzamide], the figures for the IC50 in the test on OVCAR-3 cells (setting [1]), with HT-29 cells (setting [2]) and at recombinant human KIF18A (read-out: IC50) were 6.3 nM, 0.44 nM and 98.6 nM, respectively.

On to `CCS(=O)(=O)Nc1ccc(C(=O)Nc2ccc(-n3ccnc3)c(N3CCC(F)(F)CC3)c2)c(N2CCC3(CC2)CC3)c1` [Example 20, N-(3-(4,4-difluoropiperidin-1-yl)-4-(1H-imidazol-1-yl)pheny 1)-4-(ethylsulfonamido)-2-(6-azaspiro[2.5]octan-6-yl)benzamide], for which the IC50 came out at 8.5 nM in the test on OVCAR-3 cells (setting [1]), 6 nM in the test with HT-29 cells (setting [2]) and 50.8 nM at recombinant human KIF18A (read-out: IC50).

As to `CCS(=O)(=O)Nc1ccc(C(=O)Nc2ccc(-c3ncc[nH]3)c(N3CCC(F)(F)CC3)c2)c(N2CCC3(CC2)CC3)c1` [Example 25, N-(3-(4,4-difluoropiperidin-1-yl)-4-(1H-imidazol-2-yl)pheny 1)-4-(ethylsulfonamido)-2-(6-azaspiro[2.5]octan-6-yl)benzamide], the IC50 was 3.5 nM in the test on OVCAR-3 cells (OVCAR-3, 72 h); 2.6 nM in the test with HT-29 cells (HT-29, 120 h); 33.9 nM at recombinant human KIF18A.

Regarding `CCS(=O)(=O)Nc1ccc(C(=O)Nc2ccc(-n3cncn3)c(N3CCC(F)(F)CC3)c2)c(N2CCC3(CC2)CC3)c1` [Example 28, N-(3-(4,4-difluoropiperidin-1-yl)-4-(1H-1,2,4-triazol-1-yl)phenyl)-4-(ethylsulfonamido)-2-(6-azaspiro[2.5]octan-6-yl)benz amide], the IC50 with OVCAR-3 cells (setting [1]) was determined as 12.4 nM; in the test with HT-29 cells (setting [2]), 8.4 nM; on recombinant human KIF18A (read-out: IC50) it was 59.1 nM.

Take `CCS(=O)(=O)Nc1ccc(C(=O)Nc2ccc(-n3cnnn3)c(N3CCC(F)(F)CC3)c2)c(N2CCC3(CC2)CC3)c1` [Example 29, N-(3-(4,4-difluoropiperidin-1-yl)-4-(1H-tetrazol-1-yl)phenyl)-4-(ethylsulfonamido)-2-(6-azaspiro[2.5]octan-6-yl)benzamide]: the figures for the IC50 with OVCAR-3 cells (setting [1]), in the test on HT-29 cells (setting [2]) and at recombinant human KIF18A (read-out: IC50) were 15.9 nM, 18.4 nM and 79.5 nM, respectively.

Regarding `CCS(=O)(=O)Nc1ccc(C(=O)Nc2ccc(-n3ncnn3)c(N3CCC(F)(F)CC3)c2)c(N2CCC3(CC2)CC3)c1` [Example 30, N-(3-(4,4-difluoropiperidin-1-yl)-4-(2H-tetrazol-2-yl)phenyl)-4-(ethylsulfonamido)-2-(6-azaspiro[2.5]octan-6-yl)benzamide], the values for the 50% inhibitory concentration (IC50) in the test on OVCAR-3 cells (setting [1]), with HT-29 cells (setting [2]) and at recombinant human KIF18A (read-out: IC50) were 13.3 nM, 7.9 nM and 79 nM, respectively.

For `CCS(=O)(=O)Nc1ccc(C(=O)Nc2ccc(-n3ccnn3)c(C3CCC(F)(F)CC3)c2)c(N2CCC3(CC2)CC3)c1` [Example 31, N-(3-(4,4-difluorocyclohexyl)-4-(1H-1,2,3-triazol-1-yl)pheny 1)-4-(ethylsulfonamido)-2-(6-azaspiro[2.5]octan-6-yl)benzamide], the IC50 in the test on OVCAR-3 cells (setting [1]) turned out to be 15.9 nM; in the test on HT-29 cells (setting [2]), 8.3 nM; at recombinant human KIF18A (read-out: IC50), 134 nM.

As for `CCS(=O)(=O)Nc1ccc(C(=O)Nc2ccc(-c3nnc[nH]3)c(N3CCC(F)(F)CC3)c2)c(N2CCC3(CC2)CC3)c1` [Example 37, N-(3-(4,4-difluoropiperidin-1-yl)-4-(4H-1,2,4-triazol-3-yl)phenyl)-4-(ethylsulfonamido)-2-(6-azaspiro[2.5]octan-6-yl)benz amide], the values for the IC50 with OVCAR-3 cells (setting [1]), with HT-29 cells (setting [2]) and on recombinant human KIF18A (read-out: IC50) were 3.6 nM, 3.8 nM and 39.8 nM, respectively.

As for `CCS(=O)(=O)Nc1ccc(C(=O)Nc2ccc(-c3ncn(C)n3)c(N3CCC(F)(F)CC3)c2)c(N2CCC3(CC2)CC3)c1` [Example 39, N-(3-(4,4-difluoropiperidin-1-yl)-4-(1-methyl-1H-1,2,4-triazol-3-yl)phenyl)-4-(ethylsulfon amido)-2-(6-azaspiro[2.5]octan-6-yl)benzamide], the IC50 in the test on OVCAR-3 cells (setting [1]) worked out at 3.8 nM; with HT-29 cells (setting [2]) it was 0.26 nM; at recombinant human KIF18A (read-out: IC50) it was 122 nM.
